Assays:
HIV NL4-3 = test: Infectivity of virions from 293T co-transfected with NL4-3 and A3G, TZM-bl cells; assay type: cell-based, HIV-1; settings: co-transfection of 293T with HIV NL4-3 and A3G (FIG. 8)
Experimental: FIG. 8. 293T cells were co-transfected with […] of NL4.3 plasmid DNA and 400 ng of either control or A3F/G DNAs, with or without NU52. Infectivity of equal amounts of resulting viruses (normalized by HIV-1 p24 antigen) were measured using TZM-bl cells. NU-52 treatment of producer cell reduced infectivity of virus produced from those cells.

mutant Y124A A3G = molecular target: T1, mutant Y124A A3G (Homo sapiens, UniProt Q9HC16, Y124A); test: Steady state A3 protein level by immunoblot in transiently transfected 293T cells; assay type: cell-based; settings: 293T transiently transfected, immunoblot (FIG. 7)
T1 construct: expressed in transfected cells; host or cells: 293T, transient transfection
T1 sequence (Q9HC16 whole entry Y124A): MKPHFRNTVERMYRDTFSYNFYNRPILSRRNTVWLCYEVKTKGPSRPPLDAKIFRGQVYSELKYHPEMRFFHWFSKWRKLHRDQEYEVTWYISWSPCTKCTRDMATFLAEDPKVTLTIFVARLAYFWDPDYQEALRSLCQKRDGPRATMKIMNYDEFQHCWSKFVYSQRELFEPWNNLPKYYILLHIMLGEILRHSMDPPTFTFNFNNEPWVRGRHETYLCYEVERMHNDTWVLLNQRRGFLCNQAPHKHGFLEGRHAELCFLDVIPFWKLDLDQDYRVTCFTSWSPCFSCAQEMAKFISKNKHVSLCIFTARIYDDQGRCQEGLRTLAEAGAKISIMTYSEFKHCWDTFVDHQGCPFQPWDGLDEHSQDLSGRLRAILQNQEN
Experimental: (§1) FIG. 7. 293T cells were transiently transfected with 400 ng of expression vectors for wild type A3G (A3G), a mutant A3G (A3G Y124A), and A3F (A3F) to test effect of NU52 treatment on steady state levels of the respective A3 protein, as detected by immunoblotting with respective antibodies, with GAPDH as loading control.

wild type A3G = molecular target: T2, wild type A3G (Homo sapiens, UniProt Q9HC16); test: as above; assay type: cell-based; settings: 293T transiently transfected, immunoblot (FIG. 7)
T2 construct: expressed in transfected cells; host or cells: 293T, transient transfection
T2 sequence (Q9HC16 whole entry): as the sequence (Q9HC16 whole entry Y124A) above, with A124Y counted along it
Experimental: as §1

## COc1ccc(C(=O)Nc2ccc(Cl)c(Cl)c2)cc1NC(=O)C(C)C [NU-52]
HIV NL4-3
  infectivity of virions: decreased infectivity
Mutant Y124A A3G
  expression of mutant Y124A A3G: increased
Wild type A3G
  expression of wild type A3G: increased

From patent US9688637B2, “3-amidobenzamides and uses thereof for increasing cellular levels of A3G and other A3 family members” (Northwestern University, priority 2014, dated 2017)
